Assay results reported in patent US20060160864A1, “Acrylamide derivative, process for producing the same, and use” (priority 2003, published 2006).

Target: T1, human CCR5 (Homo sapiens, UniProt P51681)
T1 construct: expressed in transfected cells
Experiment: Inhibition of [125I]-RANTES binding to CCR5/CHO cells (CCR5 antagonist activity)
Conditions: test compound 1 μM, [125I]-RANTES 100 pM, CCR5/CHO strains, room temperature; for inhibition at 1 µM: 40 min, read-out: Binding Inhibitory Ratio (%)
Experimental: Cloning of a CCR5 gene was conducted from human spleen cDNA by a PCR method. Using 0.5 ng of spleen cDNA (Toyobo Co., Ltd., QUICK-Clone cDNA) as a template, the PCR reaction was carried out in a DNA Thermal Cycler 480 (Perkin Elmer) using a TaKaRa EX Taq (Takara Shuzo Co., Ltd.) (reaction conditions: 30 cycles of treatments at 95° C. for 1 minute, at 60° C. for 1 minute, and at 75° C. for 5 minutes) by adding 25 pmol of primers, SEQ ID NO. 1 (sequence length: 34; sequence type: nucleic acid; number of chains: a single chain; topology: linear; sequence kind: other nucleic acid, synthetic DNA) described in Experimental Example (1) of WO 99/32100, and SEQ ID NO. 2 (sequence length: 34; sequence type: nucleic acid; number of chains: a single chain; topology: linear; sequence kind: other nucleic acid, synthetic DNA) described in Experimental Example (1) of WO 99/32100, respectively, which were prepared by referring to the base sequence of the CCR5 gene described by Samson et al. (Biochemistry 35 (11), 3362-3367 (1996)). The PCR products were subjected to agarose gel electrophoresis to collect DNA fragments of about 1.0 kb. Then, the CCR5 gene was cloned using an Original TA Cloning Kit (Funakoshi Co., Ltd.).
The plasmids obtained above were digested with restriction enzymes XbaI (Takara Shuzo Co., Ltd.) and BamHI (Takara Shuzo Co., Ltd.), and subjected to agarose gel electrophoresis to collect DNA fragments of about 1.0 kb. The DNA fragments and a plasmid pcDNA3.1 (Funakoshi Co., Ltd.) for expression in animal cells, which was previously digested with XbaI and BamHI, were mixed and ligated by DNA Ligation Kit Ver.2 (Takara Shuzo Co., Ltd.). Transformation of E. coli JM109 competent cells (Takara Shuzo Co., Ltd.) gave plasmid pCKR5.
CHO-K1 cells grown in a 750 ml tissue culture flask (Becton Dickinson) using Ham's F12 medium (Nihon Pharmaceutical Co., Ltd.) containing 10% fetal bovine serum (Lifetech Oriental) were collected from the flask by using 0.5 g/L trypsin-0.2 g/L EDTA (Lifetech Oriental). The cells were then washed with PBS (Lifetech Oriental), centrifuged (1000 rpm, 5 minutes), and suspended in PBS. Next, DNA was introduced into the cells using Gene Pulser (Bio-Rad Laboratories Inc.) under the following conditions. Namely, 8×10^6 cells and 10 μg of plasmid pCKR5 for expression of human CCR5 were added into a cuvette of a 0.4 cm-gap, and electroporation was carried out at an electric voltage of 0.25 kV and a capacitance of 960 μF. Subsequently, the cells were transferred into Ham's F12 medium containing 10% fetal bovine serum, and incubated for 24 hours. The cells were again collected, centrifuged, and then suspended in Ham's F12 medium containing 10% fetal bovine serum and Geneticin (Lifetech Oriental) at a concentration of 500 μg/ml. The suspension of cells was diluted to a concentration of 10^4 cells/ml, and inoculated on a 96-well plate (Becton Dickinson) to give Geneticin-resistant strains.
Subsequently, the Geneticin-resistant strains were cultured in the 96-well plate (Becton Dickinson), and then CCR5-expressing cells were selected from the resistant strains. Namely, an assay buffer (Ham's F12 medium containing 0.5% BSA, and 20 mM HEPES (Wako Pure Chemical Industries, Ltd., pH 7.2)) containing 200 pM [^125I]-RANTES (Amersham) as a ligand was added to each well and the binding reaction was carried out at room temperature for 40 minutes. Each well plate containing the cells was washed with ice-cooled PBS, and then to each well was added 1 M NaOH in an amount of 50 μl/well, which was stirred. The cells to which the ligand bound specifically, i.e., CCR5/CHO strains, were selected by measurement of radioactivity by γ-counter.
The CCR5/CHO strains were inoculated on a 96-well microplate at a concentration of 5×10^4 cells/well, respectively and were cultured for 24 hours. […]

T1 sequence (P51681 whole entry): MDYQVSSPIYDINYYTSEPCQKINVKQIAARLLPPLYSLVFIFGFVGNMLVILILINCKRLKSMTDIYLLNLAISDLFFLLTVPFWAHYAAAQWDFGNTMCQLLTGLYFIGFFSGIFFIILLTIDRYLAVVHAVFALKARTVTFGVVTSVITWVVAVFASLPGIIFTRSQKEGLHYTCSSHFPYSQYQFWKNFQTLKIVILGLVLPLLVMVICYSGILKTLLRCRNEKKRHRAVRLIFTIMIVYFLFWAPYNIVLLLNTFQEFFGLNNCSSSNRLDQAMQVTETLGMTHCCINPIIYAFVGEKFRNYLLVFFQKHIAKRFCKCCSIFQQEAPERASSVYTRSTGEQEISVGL

Row | Compound | inhibition at 1 µM | Binding Inhibitory Ratio (%) (40 minutes)
1 | CCCCOCCOc1ccc(-c2ccc(N3CCC(C(=O)OC)C3)c(/C=C(\C)C(=O)Nc3ccc([S@@+]([O-])Cc4cncn4CCC)cc3)c2)cc1 (stereo partly drawn) [Compound 40, (Ss)-(2E)-3-[4′-(2-butoxyethoxy)-4-[3-(methoxycarbonyl)pyrrolidin-1-yl]-1,1′-biphenyl-3-yl]-2-methyl-N-[4-[[(1-propyl-1H-imidazol-5-yl)methyl]sulfinyl]phenyl]acrylamide] | 100% | 
2 | CCCCOCCOc1ccc(-c2ccc(N3CCC(C)C3)c(/C=C(\C)C(=O)Nc3ccc([S@@+]([O-])Cc4cncn4CCC)cc3)c2)cc1 (stereo partly drawn) [Compound 23, (Ss)-(2E)-3-[4′-(2-butoxyethoxy)-4-(3-methylpyrrolidin-1-yl)-1,1′-biphenyl-3-yl]-2-methyl-N-[4-[[(1-propyl-1H-imidazol-5-yl)methyl]sulfinyl]phenyl]acrylamide] | 100% | 
3 | CCCCOCCOc1ccc(-c2cnc(N3CCC(C)C3)c(/C=C(\C)C(=O)Nc3ccc([S@@+]([O-])Cc4cncn4CCC)cc3)c2)cc1 (stereo partly drawn) [Compound 48, (Ss)-(2E)-3-[5-[4-(2-butoxyethoxy)phenyl]-2-(3-methylpyrrolidin-1-yl)pyridin-3-yl]-2-methyl-N-[4-[[(1-propyl-1H-imidazol-5-yl)methyl]sulfinyl]phenyl]acrylamide] | 98% | 
4 | CCCCOCCOc1ccc(-c2ccc(N3CCC(O)C3)c(/C=C(\C)C(=O)Nc3ccc([S@@+]([O-])Cc4cncn4CCC)cc3)c2)cc1 (stereo partly drawn) [Compound 26] |  | 90%
5 | CCCCOCCOc1ccc(-c2ccc(N3CCC(CC(=O)O)C3)c(/C=C(\C)C(=O)Nc3ccc([S@@+]([O-])Cc4cncn4CCC)cc3)c2)cc1 (stereo partly drawn) [Compound 62, (Ss)-(2E)-3-[4′-(2-butoxyethoxy)-4-[3-(carboxymethyl)pyrrolidin-1-yl]-1,1′-biphenyl-3-yl]-2-methyl-N-[4-[[(1-propyl-1H-imidazol-5-yl)methyl]sulfinyl]phenyl]acrylamide] | 100% | 
6 | CCCCOCCOc1ccc(-c2ccc(N3CCC(C(=O)O)C3)c(/C=C(\C)C(=O)Nc3ccc([S@@+]([O-])Cc4cncn4CCC)cc3)c2)cc1 (single isomer, unassigned) [Compound 59, (Ss)-(2E)-3-[4′-(2-butoxyethoxy)-4-(3-carboxypyrrolidin-1-yl)-1,1′-biphenyl-3-yl]-2-methyl-N-[4-[[(1-propyl-1H-imidazol-5-yl)methyl]sulfinyl]phenyl]acrylamide] | 89% | 
7 | CCCCOCCOc1ccc(-c2ccc(N3CCC(CO)C3)c(/C=C(\C)C(=O)Nc3ccc([S@@+]([O-])Cc4cncn4CCC)cc3)c2)cc1 (stereo partly drawn) [Compound 39, (Ss)-(2E)-3-[4′-(2-butoxyethoxy)-4-[3-(hydroxymethyl)pyrrolidin-1-yl]-1,1′-biphenyl-3-yl]-2-methyl-N-[4-[[(1-propyl-1H-imidazol-5-yl)methyl]sulfinyl]phenyl]acrylamide] | 99% | 
8 | CCCCOCCOc1ccc(-c2ccc(N3CCC(C(N)=O)C3)c(/C=C(\C)C(=O)Nc3ccc([S@@+]([O-])Cc4cncn4CCC)cc3)c2)cc1 (stereo partly drawn) [Compound 43, (Ss)-(2E)-3-[4′-(2-butoxyethoxy)-4-(3-carbamoylpyrrolidin-1-yl)-1,1′-biphenyl-3-yl]-2-methyl-N-[4-[[(1-propyl-1H-imidazol-5-yl)methyl]sulfinyl]phenyl]acrylamide] | 86% | 
9 | CCCCOCCOc1ccc(-c2ccc(N3CC(C)C(C)C3)c(/C=C(\C)C(=O)Nc3ccc([S@@+]([O-])Cc4cncn4CCC)cc3)c2)cc1 (stereo partly drawn) [Compound 42, (S)-(2E)-3-[4′-(2-butoxyethoxy)-4-(3,4-dimethylpyrrolidin-1-yl)-1,1′-biphenyl-3-yl]-2-methyl-N-[4-[[(1-propyl-1H-imidazol-5-yl)methyl]sulfinyl]phenyl]acrylamide] | 100% | 
